Patent publication US6517856B1, “Insecticide resistance assay” (priority 1998, dated 2003)

Columns and labels:
[1] = test system: tobacco budworm (H. virescens); assay: Feeding disruption assay, CryIAc in Trypan Blue diet (fresh diet); format: in vivo, Heliothis virescens
Method: (§1) The blue diet used in the feeding disruption bioassay is an agar based insect meal containing 20 mg of Trypan Blue (Direct Blue 14; Matheson Coleman & Bell, Norwood, Ohio) per 100 ml of standard artificial diet, and containing different concentrations of CryIAc (MVP, Mycogen). Larvae feeding on this colored diet produced blue feces which were easily distinguished by observation from feces derived from other food sources. Assays were conducted in 1-ounce clear plastic cups (Solo Cup Company, Urbana, Ill.; approximately […] in diameter and ¾ inches high) fitted with white cardboard tops, which are routinely used for insect rearing in the inventors' laboratories. The clear plastic allowed for the observation of blue feces without opening the container.
Third instars from Wake (Bt susceptible), YHD2 (Bt resistant), and YHD2×Wake hybrid strains of the tobacco budworm (H. virescens) were used. Instars weighed 30±5 mg and were reared either on standard artificial diet or cotton plants. Instars were starved for one hour and then transferred to clear plastic assay cups, one larvae per cup. The starvation treatment synchronized the beginning of feeding between individuals once transferred to the dye-containing diet. The effect of different concentrations of CryIAc (0 to 0.064 μg CryIAc/ml diet) on the production of blue feces was examined for one to 24 hours at 27±1° C. and […] (light:dark). Studies were conducted in triplicate with 15 larvae per replicate. Once a diagnostic concentration and optimum assay time were identified from these experiments, the accuracy of resistance detection was investigated for individual resistant and susceptible neonates of H. virescens. These experiments were duplicated for 25 resistant and 25 susceptible budworms from two different budworm generations.
(§2) The diagnostic concentration for resistance detection was also investigated for its ability to distinguish Wake susceptible H. virescens from H. zea. In addition, dose response studies were conducted to identify a concentration of Bt that would distinguish resistant YHD2 neonates of H. virescens from H. zea. Dose response studies were duplicated for 25 resistant (HD2) tobacco budworms and 25 bollworms from two generations at different doses of Bt ranging from 0 to 1000 μg CryIAc/ml of blue diet.

[2] = test system: H. zea; assay: as above; format: in vivo, Helicoverpa zea
Method: as §1, §2

[3] = Wake third instars, 0.008 μg/ml, 24 hours
[4] = Wake third instars, 0.032 μg CryIAc/ml diet, 24 hours
[5] = Wake third instars, 0.032 μg CryIAc/ml, 4 hours
[6] = Wake third instars, 0.032 μg CryIAc/ml, 8 hours
[7] = YHD2 third instars, 0.008 μg/ml, 24 hours
[8] = YHD2 third instars, 0.032 μg CryIAc/ml diet, 24 hours
[9] = YHD2 third instars, 0.032 μg CryIAc/ml, 4 hours
[10] = YHD2 third instars, 0.032 μg CryIAc/ml, 8 hours
[11] = YHD2×Wake hybrid third instars, 0.032 μg/ml, 24 hours
[12] = H. zea neonates, 0.032 μg CryIAc/ml diet, 24 hour

In the case of “CryIAc: Bacillus thuringiensis CryIAc δ-endotoxin, commercial formulation MVP (Mycogen), >98.0% δ endotoxin”, the “blue fecal pellets per larva” value [1, 3] is reported as 4 /larva, the “total blue fecal pellets” value [1, 3] is reported as 63 fecal pellets/15 larvae and the “blue fecal pellets per larva” value [1, 4] is reported as 0.8 /larva. The “total blue fecal pellets” value [1, 4] was 12 fecal pellets/15 larvae, the “blue fecal pellets per larva” value [1, 5] was 0.1 /larva and the “total blue fecal pellets” value [1, 5] was 1.6 fecal pellets/15 larvae. The “blue fecal pellets per larva” value [1, 6] was 0.3 /larva, the “total blue fecal pellets” value [1, 6] was 5 fecal pellets/15 larvae and the “percentage of larvae that had produced blue feces” value ([1]; Wake third instars, 0.032 μg CryIAc/ml, after 14 hours, ±1 SE) was 2.2±3.9%. The “minimum fecal production by any individual” value ([1]; YHD2 neonates, 500 μg CryIAc/ml blue diet, 24 hours) was “five”, the “fecal pellets produced per 15 larvae” value ([1]; YHD2 third instars reared on cotton, 0.032 μg CryIAc/ml Blue diet, 24 hours) was > 140 fecal pellets per 15 larvae and the “blue fecal pellets per larva” value [1, 7] was 53 /larva. For the same substance, the “total blue fecal pellets” value [1, 7] was 800 fecal pellets/15 larvae, the “blue fecal pellets per larva” value [1, 8] was 31 /larva and the “total blue fecal pellets” value [1, 8] was 470 fecal pellets/15 larvae. The “blue fecal pellets per larva” value [1, 9] was 3 /larva, the “total blue fecal pellets” value [1, 9] was 46 fecal pellets/15 larvae and the “blue fecal pellets per larva” value [1, 10] was 9 /larva. For the same substance, the “total blue fecal pellets” value [1, 10] was 129 fecal pellets/15 larvae, the “percentage producing one or more blue fecal pellets” value ([1]; YHD2 third instars, 0.032 μg CryIAc/ml, in 5 hours, ±1 SE) was 85±3.9% and the “percentage producing one or more blue fecal pellets” value ([1]; YHD2 third instars, 0.032 μg CryIAc/ml, in 9 hours, ±1 SE) was 95±3.9%. The “percentage producing one or more blue fecal pellets” value ([1]; YHD2 third instars, 0.032 μg CryIAc/ml, in 14 hours, ±1 SE) was 100.0±0.0%, the “blue fecal pellets per larva” value [1, 11] was 5 /larva and the “total blue fecal pellets” value [1, 11] was 68 fecal pellets/15 larvae. For the same substance, the “percentage producing 0-2 fecal pellets in 24 h” value ([1]; laboratory susceptible H. virescens strain, 0.032 μg MVP per ml diet) was 88.0%, the “number of H. virescens producing six blue fecal pellets (the maximum)” value ([1]; susceptible (Wake) neonates, 0.032 μg CryIAc/ml diet, 24 hour) was 1 out of 50 and the blue feces production ([1]; susceptible (Wake) third instars reared on cotton, 0.032 μg CryIAc/ml Blue diet) was “Essentially no blue feces were produced”. The “blue fecal pellets produced per larva” value [2, 12] was at least 7 blue fecal pellets, the “percentage producing ≧15 blue fecal pellets” value [2, 12] was 99% and the “percentage producing no blue feces” value ([2]; H. zea neonates, 500 μg CryIAc/ml blue diet, 24 hours) was 100%. For the same substance, the “percentage producing 0-2 fecal pellets in 24 h” value ([2]; laboratory susceptible H. zea colony, 1000 μg MVP per ml diet) was 98.0%.
